{"source": "patent US20140248218A1", "about": "“ROS-SENSITIVE FLUORESCENT PROBES” (The Regents of the University of California, priority 2013, published 2014)", "key": {"[1]": {"assay": "Solubility in aqueous buffer", "format": "physicochemical", "settings": "~1% DMSO (by volume), micromolar concentrations", "from_the_text": "The corresponding control compound lacking the boronic ester trigger was also synthesized for evaluation (FIG. 3, CBn). Both CBBE and FBBBE were quite soluble in aqueous buffer, using only ˜1% DMSO (by volume) when preparing samples at micromolar concentrations."}, "[2]": {"assay": "Fluorescence response of the probes to H2O2 (luminescence spectroscopy, fluorescence turn-on)", "format": "physicochemical", "settings": "for increase in fluorescence in response to excess H2O2 (fluorescence turn-on): 1 μM probe, 50 mM HEPES pH 7.5, H2O2 300 eq (300 μM), ratio of integrated final and initial emission; for change of emission on treatment with H2O2: 50 mM HEPES pH 7.5; for relation of relative emission to H2O2 concentration: 15 min incubation with H2O2, integrated emission", "procedure": "Fluorescence emission spectra were recorded with a Perkin-Elmer LS-55 fluorescence spectrometer. To a 2.0 mL solution of probe of varying concentrations in HEPES buffer (50 mM, pH 7.5) was added H2O2 in HEPES to monitor fluorescence turn-on. Spectra were monitored over time at room temperature with quartz cuvettes.\nTo quantitate the fluorescence turn-on, a sample of each probe (1 μM in 50 mM HEPES pH 7.5) was prepared. An excess of H2O2 (300 eq, 300 μM) was added to the latent fluorophore and spectra were recorded until no increase in fluorescence intensity was observed, signifying a complete reaction. The collected initial and final emission spectrum were integrated, and the ratio reports the fluorescence turn on.\nFBBBE and CBBE were evaluated for H2O2 sensitivity under simulated physiological conditions (50 mM HEPES, pH 7.5). For FBBBE, the installation of the benzyl protecting group forces the compound to remain in the closed lactone form, rendering FBBBE (and FBn) nonfluorescent. […] Along with the observed fluorescence increase, the absorption spectrum of FBBBE considerably changed upon H2O2 addition with a large increase in the visible absorption band (λmax=494 nm). The final spectrum recorded was identical to that of an authentic sample of fluorescein, providing additional proof that the probe was undergoing complete deprotection to the desired product (FIG. 7). […] FBBBE was incubated with different concentrations of H2O2 for 15 min and then the emission spectrum was collected.\nThe coumarin-based compound, CBBE, was nonfluorescent in the absence of H2O2. […] (FIG. 12).\n(§1) Additional studies were performed to quantify the fluorescence turn-on for each probe to directly compare the sensitivity to H2O2. […] To determine the sensitivity of these probes in a more quantitative fashion, pseudo first-order kinetic measurements were performed using UV-Vis absorption spectroscopy. The observed rate constants for FBBBE and CBBE activation by H2O2 were kobs=3.1×10-5 s-1 and kobs=4.6×10-3 s-1, respectively. It was determined that the deprotection of CBBE was much faster than FBBBE. This may be likely due to the fact that FBBBE contains two boronic ester triggers that are required for complete release of the fluorophore. Recently, it has been shown that boronic ester based probes can be sensitive to other biologically relevant ROS, such as hypochlorite (—OCl) and peroxynitrite (—ONOO).^[26]"}, "[3]": {"test_system": "RAW 264.7 cells", "assay": "Confocal fluorescence imaging of H2O2 in RAW 264.7 macrophages", "format": "cell-based, Murine", "settings": "for fluorescence in cells treated with PBS, LPS or H2O2: 50 μM compound 1 h, fixed RAW 264.7 cells", "procedure": "RAW 264.7 macrophages were grown in DMEM supplemented with 10% heat-inactivated fetal bovine serum, 2 mM L-glutamine, 100 μg/mL penicillin, and 100 μg/mL streptomycin (Life Technologies, Carlsbad, Calif.). For confocal microscopy, the RAW 264.7 cells were seeded at 250,000 in glass bottom 35 mm dishes (MatTek Corporation, Ashland, Mass.) and post-adhering (5 h), some dishes were treated with 1 μg/mL of LPS (Sigma-Aldrich, St. Louis, Mo.) for 24 h. Other dishes were treated the next day after plating with either 100 μM H2O2 for 1 h or PBS for 1 h. Cells were washed twice with PBS and fixed in ice-cold 95% ethanol for 15 min. Cells were twice rinsed with PBS and incubated with either 50 μM probe (FBBBE) or 50 μM control (FBn) for 1 h at room temperature. Cells were washed twice with PBS and coverslips were mounted over cells using Aqua Mount (Thermo Scientific, Waltham, Mass.). Confocal images were obtained at 80× magnification on an Olympus FV1000 confocal laser scanning microscope. Images were processed using ImageJ software (NIH).\nFBBBE was examined for H2O2 detection in biological samples via confocal microscopy. Murine macrophage RAW 264.7 cells were treated with PBS buffer (unstimulated cells), lipopolysaccharide (LPS, stimulated cells), or with exogenous H2O2, followed by incubation with either FBBBE (FIG. 5a-c) or FBn (FIG. 5d-f). The inflammatory effects of LPS in macrophages are well established and result in a burst of reactive oxygen species and reactive nitrogen intermediates among other inflammatory signatures.^[27] […] The cells are washed and fixed prior to incubating with the probe."}, "[4]": {"assay": "Fluorescent response of probe to hypochlorite compared with H2O2", "format": "physicochemical", "settings": "1 μM probe, 100 μM ROS, 50 mM HEPES pH 7.5, 25° C.", "procedure": "FIG. 16. Histograms of fluorescent responses of 1 μM FBBBE to hydrogen peroxide (H2O2) and hypochlorite (OCl^−): (Data shown are for 100 μM of each ROS) hydrogen peroxide and hypochlorite were delivered from 30% and 5% aqueous solutions, respectively and spectra were acquired in 50 mM HEPES (pH 7.5) wherein all data were obtained after incubation with the appropriate ROS at 25° C.; the collected emission was integrated between […] (λex=480 nm), and bars represent relative responses (left to right) at 5 (white), 15 (light gray), 30 (gray), 45 (dark gray), and 60 min (black) after addition of ROS.\nas §1, with “Recently, it has been shown that boronic ester based probes can be sensitive to other biologically relevant ROS, such as hypochlorite (—OCl) and peroxynitrite (—ONOO).^[26]” left out"}, "[5]": {"test_system": "mouse spinal cord", "assay": "Confocal fluorescence imaging of H2O2 in mouse spinal cord tissue sections (ex vivo)", "settings": "50 μM probe 1 h", "procedure": "(§2) 3-4 week old female C57BL/6J mice were purchased from Jackson Laboratory (Bar Harbor, Me.). Mice were sacrificed and perfused with sterile PBS. The brain and spinal cord were harvested and imbedded in Tissue-Tek® OCT Compound (Sakura Finetek USA, Torrance, Calif.) and frozen in dry ice before storage at −80° C. All animal studies were reviewed and approved by the University of California, San Diego Institutional Animal Care and Use Committee (La Jolla, Calif.).\nFor confocal microscopy, the frozen tissue was cut into 10-μm sections on a Leica cryomicrotome and mounted on slides. Tissue sections were fixed in ice-cold 95% ethanol for 15 min and rehydrated in PBS for 5 min at room temperature in a humidity chamber. Tissue sections were either incubated with PBS or 100 μM H2O2 for 1 h at room temperature in a humidity chamber, followed by a 1 h incubation with either 50 μM probe (FBBBE) or 50 μM control (FBn) and a 10 min nuclear stain (DAPI, 4′,6-diamidino-2-phenylindole). The sections were rinsed in PBS and hydrated in water. […]\nTo further investigate whether FBBBE is activated by truly endogenous levels of H2O2, the probe was evaluated in the spinal cord. […] The lack of fluorescence signal from the H2O2-treated samples may be due to an inability of FBBBE to penetrate the spinal cord tissues, which is then subsequently washed away before the image is taken."}, "[6]": {"test_system": "mouse brain", "assay": "Confocal fluorescence imaging of H2O2 in mouse brain tissue sections (ex vivo)", "settings": "for fluorescence turn-on in brain tissue: 50 μM compound 1 h, sections incubated with PBS or 100 μM H2O2", "procedure": "as §2\nFor confocal microscopy, the frozen tissue was cut into 10-μm sections on a Leica cryomicrotome and mounted on slides. Tissue sections were fixed in ice-cold 95% ethanol for 15 min and rehydrated in PBS for 5 min at room temperature in a humidity chamber. Tissue sections were either incubated with PBS or 100 μM H2O2 for 1 h at room temperature in a humidity chamber, followed by a 1 h incubation with either 50 μM probe (FBBBE) or 50 μM control (FBn) and a 10 min nuclear stain (DAPI, 4′,6-diamidino-2-phenylindole). The sections were rinsed in PBS and hydrated in water. Coverslips were mounted using Aqua Mount (Thermo Scientific, Waltham, Mass.). Confocal images were obtained at 40× or 80× magnification on an Olympus FV1000 confocal laser scanning microscope. Images were processed using ImageJ software.\nCellular studies were extended to a more physiologically relevant model for H2O2 detection. H2O2 is particularly active in the brain and neuronal tissue, triggered by the metabolism of neurotransmitters.^[28] The brain and spinal cord from 3-4 week old female C57BL/6J mice were excised, frozen in OCT medium, and 10 μm sagittal cryosections were prepared for staining with FBBBE and FBn. At this age, the mice undergo extensive neuronal development and remodeling. Such activity has been associated with higher levels of neurotransmitter activity and ROS in both neurons and microglial cells in the brain. Consistent with the previous experiments, the sections were either incubated with PBS (unstimulated) or H2O2 (FIG. 6). […]"}, "[7]": {"settings": "cited from earlier work"}}, "data": [{"smiles": "CC1(C)OB(c2ccc(COc3ccc4ccc(=O)oc4c3)cc2)OC1(C)C", "note": "[CBBE, 7-((4-(4,4,5,5-tetramethyl-1,3,2-dioxaborolan-2-yl)benzyl)oxy)-2H-chromen-2-one]", "values": [{"measurement": "solubility in aqueous buffer", "setting": "[1]", "result": "quite soluble"}, {"measurement": "increase in fluorescence in response to excess H2O2 (fluorescence turn-on)", "setting": "[2]", "result": 57, "unit": "fold"}, {"measurement": "change of emission on treatment with H2O2", "setting": "[2]", "result": "quickly turned on"}, {"measurement": "relation of relative emission to H2O2 concentration", "setting": "[2]", "result": "linear correlation"}]}, {"smiles": "O=c1ccc2ccc(OCc3ccccc3)cc2o1", "note": "[CBn, 7-(benzyloxy)-2H-chromen-2-one, reference compound]", "values": [{"measurement": "change of emission on treatment with H2O2", "setting": "[2]", "result": "no change"}]}, {"smiles": "CC1(C)OB(c2ccc(COc3ccc4c(c3)Oc3cc(OCc5ccc(B6OC(C)(C)C(C)(C)O6)cc5)ccc3C43OC(=O)c4ccccc43)cc2)OC1(C)C", "note": "[FBBBE, 3′,6′-bis((4-(4,4,5,5-tetramethyl-1,3,2-dioxaborolan-2-yl)benzyl)oxy)-3H-spiro[isobenzofuran-1,9′-xanthen]-3-one]", "values": [{"measurement": "fluorescence in cells treated with PBS, LPS or H2O2", "setting": "[3]", "result": "observed in all cells"}, {"measurement": "mean fluorescence, PBS or H2O2 vs LPS treated cells", "setting": "[3]; 50 μM probe, 1 μg/mL LPS 24 h, p<0.001", "result": "statistically different"}, {"measurement": "mean fluorescence, PBS vs H2O2 treated cells", "setting": "[3]; 50 μM probe, 100 μM H2O2 1 h", "result": "not statistically different"}, {"measurement": "sensitivity to other ROS (OCl-) compared to H2O2", "setting": "[4]", "result": "less sensitive"}, {"measurement": "fluorescence in spinal cord tissue with exogenous H2O2", "setting": "[5]; 100 μM H2O2, compared to brain tissue", "result": "minimal amount of fluorescence"}, {"measurement": "probe activation in unstimulated spinal cord tissue", "setting": "[5]; PBS", "result": "essentially inactive"}, {"measurement": "solubility in aqueous buffer", "setting": "[1]", "result": "quite soluble"}, {"measurement": "increase in fluorescence in response to excess H2O2 (fluorescence turn-on)", "setting": "[2]", "result": 52, "unit": "fold"}, {"measurement": "change of emission on treatment with H2O2", "setting": "[2]", "result": "large increase in fluorescence"}, {"measurement": "relation of relative emission to H2O2 concentration", "setting": "[2]", "result": "linear correlation"}, {"measurement": "fluorescence turn-on in brain tissue", "setting": "[6]", "result": "sufficient to activate the probe"}, {"measurement": "effect of exogenous H2O2 on fluorescence in brain tissue", "setting": "[6]; 50 μM probe, 100 μM H2O2 vs PBS", "result": "did not alter the fluorescence levels observed"}]}, {"smiles": "O=C1OC2(c3ccc(OCc4ccccc4)cc3Oc3cc(OCc4ccccc4)ccc32)c2ccccc21", "note": "[FBn, 3′,6′-bis(benzyloxy)-3H-spiro[isobenzofuran-1,9′-xanthen]-3-one, reference compound]", "values": [{"measurement": "fluorescence in cells treated with PBS, LPS or H2O2", "setting": "[3]", "result": "no turn on of fluorescence in any of the cells"}, {"measurement": "change of emission on treatment with H2O2", "setting": "[2]", "result": "does not show any changes"}, {"measurement": "fluorescence turn-on in brain tissue", "setting": "[6]", "result": "no fluorescence turn on was observed"}]}, {"smiles": "O=C1OC2(c3ccc(O)cc3Oc3cc(O)ccc32)c2ccccc21", "note": "[Fluorescein]", "values": [{"measurement": "water solubility", "setting": "[7]", "result": "excellent water solubility"}]}]}
